US12144864B2, “Tubulysins and protein-tubulysin conjugates” (Regeneron Pharmaceuticals, Inc., priority 2018, dated 2024)
Where two headings read alike, the source gives them in different places.

Legend:
HCT15 cells = assay: cells; assay type: cell-based, human; settings: HCT15 cells
Method in brief: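 Five-day exposure of 1000 HCT15 cells/well to threefold payload dilutions, run both plus and minus verapamil (5 ug/mL) in RPMI with 10% FBS. ATP luminescence (CellTiter-Glo) gives viability; four-parameter logistic fit of 10 points yields IC50, and 100 − % viable at highest dose gives % kill.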

HCT-15 cells = assay: Cytotoxicity in panel of MDR cell lines, HCT-15 (72 h and 144 h); assay type: cell-based, human; settings: for IC50: Homo sapiens
Method in brief: (§1)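 Luminescent ATP readout (CellTiter-Glo) quantified viable cells after 72 h or 144 h exposure to 1:3 serial payload dilutions. Cells plated at 1000/well in their normal growth media. IC50 in M from a four-parameter logistic fit; % kill at top concentration taken as 100 − % viable.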

H69AR cells = assay: Cytotoxicity in panel of MDR cell lines, H69AR (72 h and 144 h); assay type: cell-based, human; settings: for IC50: Homo sapiens
Method in brief: as §1

C4-2 cells [1] = assay: Cell-based killing assay of payloads (CellTiter-Glo), C4-2 cells; parameters: species or system human; settings: 5-day incubation
Method in brief: (§2)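 Viability readout is CellTiter-Glo luminescence after a 5-day exposure to 10-point, threefold-diluted payloads spanning 100 nM–[…], following overnight attachment of 4000 cells/well. Four-parameter logistic fit gives IC50 in M; % kill taken at highest concentration tested.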

HCT15/PRLR cells = assay: Cytotoxicity of anti-PRLR tubulysin ADCs and payloads in HCT15/PRLR cells with or without Verapamil; assay type: cell-based, human; settings: for IC50: Homo sapiens, HCT-15
Experimental: (§3) To test the ability of the disclosed tubulysin payloads to kill human cell lines, an in vitro cytotoxicity assay was performed. In vitro cytotoxicity of the disclosed payloads, as well as reference compounds, were evaluated using the CellTiter-Glo Assay Kit (Promega, Cat #G7573), in which the quantity of ATP present is used to determine the number of viable cells in culture. For the assay, C4-2, HEK293, or T47D cells were seeded at 4000 cells/well on Nunclon white 96-well plates in complete growth medium (DME high glucose:Ham's F12 at 4:1, 10% FBS, 100 units/ml Penicillin, 100 ug/ml streptomycin, 53 ug/ml glutatmine, 10 ug/ml insulin, 220 ng/ml biotin, 12.5 pg/ml T3, 12.5 ug/ml Adenine, 4 ug/ml transferrin for C42 cells; DME high glucose, 10% FBS, 100 units/ml Penicillin, 100 ug/ml streptomycin, 53 ug/ml glutatmine for HEK293; RPMI, 10% FBS, 100 units/ml Penicillin, 100 ug/ml streptomycin, 53 ug/ml glutatmine, 10 ug/ml insulin, 10 mM HEPEs, 200 nM Sodium Pyruvate for T47D cells) and grown overnight at 37° C. in 5% CO2. For cell viability curves, 1:3 serially diluted payloads were added to the cells at final concentrations ranging from 100 nM to […], including a no treatment control group, and were then incubated for 5 days. After the 5-day incubation, cells were incubated at room temperature with 100 μL of CellTiter-Glo reagents for 10 minutes. Relative luminescence units (RLU) were determined on a Victor plate reader (PerkinElmer). The IC50 values were determined from a four-parameter logistic equation over a 10-point response curve (GraphPad Prism). All IC50 values are expressed in molar (M) concentration. The percent cell killing (% kill) at the maximum concentration tested was estimated from the following formula (100−% viable cells). Averages±standard deviation (SD) are included where replicate experiments were performed.
Bioassays were developed to assess the efficacy of an anti-PRLR antibody conjugated with the disclosed tubulysin payloads and reference payloads. It was developed to assess the activity of tubulysin payloads after internalization of an anti-PRLR-tubulysin ADC into cells, release of the payload, and subsequent cytotoxicity. For this assay, a HCT15 line was engineered to express human full length PRLR (accession #NP_000940.1). The resulting stable cell line is referred to herein as HCT15/PRLR. In vitro cytotoxicity of the disclosed payloads, reference compounds, and tested ADCs were evaluated similarly as described in this example using HCT15/PRLR cells with or without […] of Verapamil diluted in normal culture medium. The compounds were tested at concentrations starting at 100 nM with 3-fold serial dilution. All IC50 values are expressed in nM concentration and the percent cell killing (% kill) at the maximum concentration tested was estimated from the following formula (100−% viable cells).

C4-2 cells [2] = assay: Cytotoxicity of anti-STEAP2 ADCs, payloads and reference compounds in C4-2 cells; assay type: cell-based, human
Experimental: as §3
To further test the ability of the disclosed tubulysin payloads, reference compounds, and antibody drug conjugates using these payloads, a cytotoxicity assay was performed using C4-2 cells as described in this example (see above). For these studies, anti-STEAP2 antibodies were conjugated to select tubulysins payloads, and the compounds were tested at concentrations starting at 100 nM with 3-fold serial dilution. All IC50 values are expressed in nM concentration and the percent cell killing at the maximum concentration tested was estimated from the following formula (100−% viable cells).

HL60/MX2 cells = assay: Cytotoxicity in panel of MDR cell lines, HL60/MX2 (72 h and 144 h); assay type: cell-based, human; settings: for IC50: Homo sapiens
Method in brief: as §1

HEK293 cells = assay: Cell-based killing assay of payloads (CellTiter-Glo), HEK293 cells; parameters: species or system human; settings: 5-day incubation
Method in brief: as §2

T47D cells = assay: Cell-based killing assay of payloads (CellTiter-Glo), T47D cells; parameters: species or system human; settings: 5-day incubation
Method in brief: as §2

MES-SA/MX2 cells = assay: Cytotoxicity in panel of MDR cell lines, MES-SA/MX2 (72 h and 144 h); assay type: cell-based, human; settings: for IC50: Homo sapiens
Method in brief: as §1

[3] = at maximum concentration tested

## C#CCCCCN(C(=O)[C@@H](NC(=O)[C@H]1CCCCN1C)[C@@H](C)CC)[C@H](C[C@@H](OC(C)=O)c1nc(C(=O)N[C@@H](Cc2ccc(N)cc2)CC(C)(C)C(=O)O)cs1)C(C)C [IVd, (4S)-4-({2-[(1R,3R)-1-(Acetyloxy)-3-[(2S,3S)—N-(hex-5-yn-1-yl)-3-methyl-2-{[(2R)-1-methylpiperidin-2-yl]formamido}pentanamido]-4-methylpentyl]-1,3-thiazol-4-yl}formamido)-5-(4-aminophenyl)-2,2-dimethylpentanoic acid]
HCT15 cells; with 5 ug/mL Verapamil, maximum % cell killing
  HCT-15 + verapamil % Kill: 97.7 ± 1.8%
HCT15 cells; with 5 ug/mL Verapamil, read-out: HCT-15 + verapamil IC50
  IC50: 0.0407 nM
HCT15 cells; without Verapamil, maximum % cell killing
  HCT-15 % Kill: 98.2 ± 0.5%
HCT15 cells; Homo sapiens, HCT-15, without Verapamil, read-out: HCT-15 IC50
  IC50: 0.057 nM
HCT-15 cells; 72 h incubation
  HCT-15 % Kill 72 h: 97.6%
HCT-15 cells; 144 h incubation
  HCT-15 % Kill 144 h: 99.7%
HCT-15 cells; 72 h incubation, read-out: HCT-15 IC50 72 h
  IC50: 0.00888 nM
HCT-15 cells; 144 h incubation, read-out: HCT-15 IC50 144 h
  IC50: 0.0295 nM
H69AR cells; 72 h incubation
  H69AR % Kill 72 h: 96.9%
H69AR cells; 144 h incubation
  H69AR % Kill 144 h: 99.5%
H69AR cells; 72 h incubation, read-out: H69AR IC50 72 h
  IC50: 0.0564 nM
H69AR cells; 144 h incubation, read-out: H69AR IC50 144 h
  IC50: 0.133 nM
C4-2 cells [1]; Homo sapiens, C4-2, 120 h, average ± SD where replicates
  IC50: 0.0164 nM
C4-2 cells [1]; at maximum concentration tested (100 − % viable cells)
  C4-2 % Kill: 93.7 ± 1.8%
HCT15/PRLR cells; with Verapamil, read-out: IC50 (nM) on HCT15/PRLR w/ Verapamil
  IC50: 0.015 nM
HCT15/PRLR cells; without Verapamil, read-out: IC50 (nM) on HCT15/PRLR w/o Verapamil
  IC50: 0.037 nM
HCT15/PRLR cells; with Verapamil, at maximum concentration tested
  % kill on HCT15/PRLR w/ Verapamil: 99%
HCT15/PRLR cells; without Verapamil, at maximum concentration tested
  % kill on HCT15/PRLR w/o Verapamil: 99%
C4-2 cells [2]; Homo sapiens, top concentration 100 nM, 3-fold serial dilution
  IC50: 0.022 nM
C4-2 cells [2]; [3]
  % kill: 99%
HL60/MX2 cells; 72 h incubation
  HL60/MX2 % Kill 72 h: 98.6%
HL60/MX2 cells; 144 h incubation
  HL60/MX2 % Kill 144 h: 99.9%
HL60/MX2 cells; 72 h incubation, read-out: HL60/MX2 IC50 72 h
  IC50: < 0.015 nM
HL60/MX2 cells; 144 h incubation, read-out: HL60/MX2 IC50 144 h
  IC50: < 0.015 nM
HEK293 cells; Homo sapiens, HEK293, 120 h
  IC50: 0.0572 nM
HEK293 cells; [3]
  HEK293 % Kill: 85.4%
T47D cells; Homo sapiens, T47D, 120 h
  IC50: 0.035 nM
T47D cells; [3]
  T47D % Kill: 84.5%
MES-SA/MX2 cells; 72 h incubation
  MES-SA/MX2 % Kill 72 h: 99.5%
MES-SA/MX2 cells; 144 h incubation
  MES-SA/MX2 % Kill 144 h: 100%
MES-SA/MX2 cells; 72 h incubation, read-out: MES-SA/MX2 IC50 72 h
  IC50: 0.0541 nM
MES-SA/MX2 cells; 144 h incubation, read-out: MES-SA/MX2 IC50 144 h
  IC50: 0.13 nM
